Data as given in patent publication US6737400B2, “Method and composition for treating irritable bowel syndrome using low doses of opioid receptor antagonists” (Albert Einstein College of Medicine of Yeshiva University, priority 1999, dated 2004).

Key:
[1] = test system: opioid analgesia in postsurgical patients; conditions: cited from earlier work; for Effect on analgesic potency of morphine: low-dose cotreatment with morphine, postsurgical patients, 24-hour test periods
IBS patients = conditions: 30 mg, three times daily; cited from earlier work
[2] = test system: constipation-predominant IBS patients; conditions: eight patients, 16 mg three times a week, eight weeks; cited from earlier work
patients with IBS = test: Open clinical study of low dose naltrexone in patients with IBS (daily symptom diary, global self-assessment); format: in vivo, human
Procedure: An open study of low dose naltrexone administration in four (4) patients with IBS was initiated. The patients were evaluated for IBS, based on the Rome criteria. All patients were screened for other disorders or medications that could cause gastrointestinal symptoms of IBS. These included inflammatory bowel disease, cancer, lactose intolerance, and neurological disorders, as well as the use of narcotic medications. […] Each subject was fully informed of the benefits and possible side effects of the study and thereafter freely gave their consent to participate in the study.
Each patient maintained a daily diary of the symptoms prior to and during treatment with 1-3 mg/day of naltrexone. Each participant noted the following symptoms:
Patients were permitted to remain on medications other than anticholinergics and anti-diarrheal agents (i.e., fiber bulking agents or lactose enzyme replacement if needed).
Naltrexone (tradename Revia; 50 mg tablets; DuPont Merck) was purchased at a pharmacy. Single tablets were crushed and dissolved in 50 ml boiled distilled water, and stored unfrozen in a refrigerator. Each patient received 2 ml (2 mg) orally each morning with breakfast. Medication was prepared weekly and used for seven doses, with the remainder being discarded.

[3] = Patient A, after 24 months, 2.5-3.0 mg/day
[4] = Patient B, after 12 months, 1.5-2.3 mg/day
[5] = Patient D, after 9 months, 2.5-3.0 mg/day

Q: With C=CCN1CC[C@]23c4c5ccc(O)c4O[C@H]2C(=O)CC[C@@]3(O)[C@H]1C5 [naloxone] as the compound, how does the “Effect on analgesic potency of morphine” value [1] read?
A: markedly enhanced the analgesic potency of morphine

Q: For fedotizine, which “Treatment of IBS” value (IBS patients) is on record?
A: successful treatment

Q: Which “Abdominal pain or bloating” value [2] does the source give for C=C1CCC2(O)C3Cc4ccc(OC5OC(C(=O)O)C(O)C(O)C5O)c5c4C2(CCN3CC2CC2)C1O5 (stereo not shown) [nalmefene glucuronide, Nalmefene glucuronide] here?
A: did not reduce abdominal pain or bloating

Q: And the Stool consistency [2]?
A: not improved

Q: And the Stool frequency [2]?
A: increased stool frequency

Q: And the Transit time [2]?
A: decreased transit time

Q: For C=C1CC[C@@]2(O)[C@H]3Cc4ccc(O)c5c4[C@@]2(CCN3CC2CC2)[C@H]1O5 [nalmefene], which “Effect on morphine's analgesic potency” value ([1]; ca. 15 μg, IV) is on record?
A: markedly enhance morphine's analgesic potency

Q: What about the “Effect on opioid analgesia” value ([1]; doses of >0.5 mg) of the same compound?
A: markedly attenuate opioid analgesia

Q: And the “Effect on analgesic potency of morphine” value [1]?
A: markedly enhanced the analgesic potency of morphine

Q: Which Abdominal cramping (patients with IBS; [3]) does the source give for O=C1CC[C@@]2(O)[C@H]3Cc4ccc(O)c5c4[C@@]2(CCN3CC2CC2)[C@H]1O5 [naltrexone] here?
A: completely ceased

Q: What about the “Frequency of bowel actions” value (patients with IBS; [3]) of the same compound?
A: returned to normal levels

Q: What about the Cramping abdominal pain (patients with IBS; Patient A, after nine months of treatment) of the same compound?
A: no cramping abdominal pain

Q: What about the Stool frequency (patients with IBS; Patient A, after nine months of treatment, oral daily, before treatment about 4-8 times per day) of the same compound?
A: 1-2 formed bowel movements per day

Q: And the “Global improvement on the 0-4 scale” value (patients with IBS; Patient A, 0 = no observable change, 4 = marked and substantially improved)?
A: 4

Q: What about the “Global improvement on the 0-4 scale” value (patients with IBS; Patient B) of the same compound?
A: 3

Q: And the “Frequency of bowel actions” value (patients with IBS; [4])?
A: no change

Q: And the “Reduction in abdominal cramping” value (patients with IBS; [4])?
A: 50%

Q: What about the “Abdominal pain associated with cramping” value (patients with IBS; Patient B, after 75 days of treatment) of the same compound?
A: total elimination of abdominal pain associated with cramping

Q: What about the Stool frequency (patients with IBS; Patient B, after 75 days of treatment, before treatment 10-12 diarrheal movements per day) of the same compound?
A: 2-4 bowel movements per day

Q: And the “Global improvement on the 0-4 scale” value (patients with IBS; Patient C)?
A: 2.5

Q: What about the IBS symptoms (patients with IBS; Patient C, 24 month follow-up, diagnosed with fibromyalgia, 1-2 mg/day, stopped after 6 months) of the same compound?
A: did not respond

Q: What about the “Abdominal pain associated with cramping” value (patients with IBS; Patient C, after 75 days of 2 mg/day) of the same compound?
A: eliminated

Q: And the “Frequency of loose bowel movements” value (patients with IBS; Patient C, after 75 days of 2 mg/day, before treatment 2-3 loose bowel movements daily)?
A: halved in frequency

Q: What about the “Global improvement on the 0-4 scale” value (patients with IBS; Patient D) of the same compound?
A: 2.5

Q: And the Decrease in cramping (patients with IBS; [5])?
A: 75%

Q: What about the “Reduction in frequency of bowel actions” value (patients with IBS; [5]) of the same compound?
A: 20%

Q: What about the “IBS symptoms after treatment was halted” value (patients with IBS; Patient D, low-dose treatment halted after 9 months) of the same compound?
A: IBS symptoms returned

Q: What about the Abdominal cramping symptoms (patients with IBS; Patient D, upon initiation of low dose treatment, continued over 70 days) of the same compound?
A: immediate relief of abdominal cramping symptoms

Q: And the “Reduction in stool frequency” value (patients with IBS; Patient D, upon initiation, continued over 70 day treatment period, before treatment 7-10 unformed diarrheal movements per day)?
A: 50%

Q: And the “IBS symptoms on every other day dosing schedule” value (patients with IBS; Patients A and C, dosing changed to every other day)?
A: IBS symptoms returned

Q: And the Side effects (patients with IBS; four patients, 2 mg orally each morning)?
A: None of the four patients reported discernible side effects
